This assay concerns the target T1, hematopoietic prostaglandin D2 synthase (HPGDS) (Homo sapiens, UniProt O60760).
T1 construct: human recombinant
The experiment in a line: fluorescence polarisation probe-displacement assay (Cayman kit #[…]), recombinant human HPGDS. The class given is binding. In general terms: Polarisation of emitted light reports the rotation of a fluorescent probe.

Among the data in article PMC12020277, “Pharmacology and macrophage modulation of HPGDS inhibitor PK007 demonstrate reduced disease severity in DMD-affected muscles of the mdx mouse model” (Skeletal Muscle, 2025) are IC50 values, retold here.

T1 sequence (O60760 whole entry): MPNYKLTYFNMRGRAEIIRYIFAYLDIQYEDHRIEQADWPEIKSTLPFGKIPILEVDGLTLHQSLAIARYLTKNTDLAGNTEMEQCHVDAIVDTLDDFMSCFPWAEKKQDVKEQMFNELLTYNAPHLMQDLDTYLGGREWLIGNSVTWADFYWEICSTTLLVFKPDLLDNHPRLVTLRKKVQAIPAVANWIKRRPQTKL

A word on the IC50: it is the midpoint of a concentration-inhibition curve. In the case of PK007, the 50% inhibitory concentration (IC50) was found to be 1540 ± 260 nM.
